Key:
D(3) dopamine receptor = D(3) dopamine receptor (Homo sapiens, UniProt P35462); test: Binding affinity towards human cloned Dopamine D3 receptor in CHO cells by [3H]spiperone displacement.; assay type: cell-based
D(2) dopamine receptor = D(2) dopamine receptor (Homo sapiens, UniProt P14416); test: Binding affinity towards human cloned Dopamine D2 receptor in CHO cells by [3H]spiperone displacement.; assay type: cell-based
Rattus norvegicus = test: Compound was tested for the locomotory activity in rats after oral administration; no effect; assay type: functional
Mus musculus = test: Compound was tested for the locomotory activity in mice after ip administration; assay type: functional

Chain of D(2) dopamine receptor (P14416 whole entry): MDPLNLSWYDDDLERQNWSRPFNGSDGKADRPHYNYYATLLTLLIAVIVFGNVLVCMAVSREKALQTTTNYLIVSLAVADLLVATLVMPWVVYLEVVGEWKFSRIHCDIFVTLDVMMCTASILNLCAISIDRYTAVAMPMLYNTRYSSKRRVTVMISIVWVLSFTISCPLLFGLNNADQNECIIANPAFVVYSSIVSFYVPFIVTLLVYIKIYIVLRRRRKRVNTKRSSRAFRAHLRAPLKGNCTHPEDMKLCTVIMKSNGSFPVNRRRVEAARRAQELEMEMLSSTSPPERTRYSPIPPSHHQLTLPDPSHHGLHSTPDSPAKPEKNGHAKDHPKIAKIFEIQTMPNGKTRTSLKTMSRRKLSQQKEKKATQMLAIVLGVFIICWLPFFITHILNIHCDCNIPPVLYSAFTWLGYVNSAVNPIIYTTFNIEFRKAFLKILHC
Chain of D(3) dopamine receptor (P35462 whole entry): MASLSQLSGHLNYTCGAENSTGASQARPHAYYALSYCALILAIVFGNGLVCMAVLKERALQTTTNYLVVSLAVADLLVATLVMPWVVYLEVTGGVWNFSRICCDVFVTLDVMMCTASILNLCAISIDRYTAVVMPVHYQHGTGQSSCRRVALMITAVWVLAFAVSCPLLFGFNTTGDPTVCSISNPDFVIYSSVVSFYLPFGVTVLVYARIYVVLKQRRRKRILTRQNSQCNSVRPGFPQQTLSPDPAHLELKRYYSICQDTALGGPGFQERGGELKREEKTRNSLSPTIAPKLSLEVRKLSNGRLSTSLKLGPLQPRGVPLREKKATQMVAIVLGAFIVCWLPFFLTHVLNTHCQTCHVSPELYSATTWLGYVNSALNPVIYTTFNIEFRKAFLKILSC

Structure (SMILES)	Ki (D(3) dopamine receptor) [nM]	Ki (D(2) dopamine receptor) [nM]	ED50 (Rattus norvegicus) [mg/kg]	ED50 (Mus musculus) [mg/kg]
CCN(CC)CCCOc1ccc(-c2nc3ccccc3n2CCCCn2c(-c3ccc(OCCCN(CC)CC)cc3)nc3ccccc32)cc1	28	1490		
CCN(CC)CCCOc1ccc(-c2nc3ccccc3n2CCCCCCn2c(-c3ccc(OCCCN(CC)CC)cc3)nc3ccccc32)cc1	131	1750		
CCN(CC)CCCOc1ccc(-c2nc3ccccc3n2Cc2ccc(Cn3c(-c4ccc(OCCCN(CC)CC)cc4)nc4ccccc43)cc2)cc1	184	3440		
C(=C\Cn1c(-c2ccc(OCCCN3CCOCC3)cc2)nc2ccccc21)/Cn1c(-c2ccc(OCCCN3CCOCC3)cc2)nc2ccccc21	> 2040	> 3330		
CCN(CC)CCCOc1ccc(-c2nc3ccccc3n2CC=CCn2c(-c3ccc(OCCCN(CC)CC)cc3)nc3ccccc32)cc1	87	1520		
CCN(CC)CCCOc1ccc(-c2nc3ccccc3n2C/C=C/Cn2c(-c3ccc(OC)cc3)nc3ccccc32)cc1		1410		
CCN(CC)CCCOc1ccc(-c2nc3ccccc3n2C/C=C/Cn2c(-c3ccc(OCCCC4CCCCC4)cc3)nc3ccccc32)cc1	39	1030		
CCN(CC)CCCOc1ccc(-c2nc3ccccc3n2C/C=C/Cn2c(-c3ccc(OCCCN(CC)CC)cc3)nc3ccccc32)cc1	35	2350		
CCN(CC)CCCOc1ccc(-c2nc3ccccc3n2C/C=C/Cn2c(-c3ccccc3)nc3ccccc32)cc1	133	6530		
CCN(CC)CCCOc1ccc(-c2nc3ccccc3n2C/C=C/Cn2c(C)nc3ccccc32)cc1	1200	> 3330		
C(=C\Cn1c(-c2ccc(OCCCN3CCN(c4ccccc4)CC3)cc2)nc2ccccc21)/Cn1c(-c2ccc(OCCCN3CCN(c4ccccc4)CC3)cc2)nc2ccccc21	275	3940		
CN(C)CCCOc1ccc(-c2nc3ccccc3n2C/C=C/Cn2c(-c3ccc(OCCCN(C)C)cc3)nc3ccccc32)cc1	144	4990		

Stronger by Ki (D(2) dopamine receptor), values ahead:

Ki (D(3) dopamine receptor) [nM]	Ki (D(2) dopamine receptor) [nM]	Structure (SMILES)	ED50 (Rattus norvegicus) [mg/kg]	ED50 (Mus musculus) [mg/kg]
19	803	CCN(CC)CCCOc1ccc(-c2nc3ccccc3n2C/C=C/Cn2c(-c3ccc(OCCCN4CCN(c5ccccc5)CC4)cc3)nc3ccccc32)cc1		
10	517	C(=C\Cn1c(-c2ccc(OCCCN3CCCCC3)cc2)nc2ccccc21)/Cn1c(-c2ccc(OCCCN3CCCCC3)cc2)nc2ccccc21	> 30	7.1
	472	CCCCN(CCCC)CCCOc1ccc(-c2nc3ccccc3n2C/C=C/Cn2c(-c3ccc(OCCCN(CCCC)CCCC)cc3)nc3ccccc32)cc1		
5	343	CCCN(CCC)CCCOc1ccc(-c2nc3ccccc3n2C/C=C/Cn2c(-c3ccc(OCCCN(CCC)CCC)cc3)nc3ccccc32)cc1		
9	56	C(=C\Cn1c(-c2ccc(OCCCN3CCCC3)cc2)nc2ccccc21)/Cn1c(-c2ccc(OCCCN3CCCC3)cc2)nc2ccccc21		

— ChEMBL document CHEMBL1128063, “Discovery of selective dopamine D3 ligands: I. Dimeric 2-[4-(3-aminopropoxy)phenyl]benzimidazole antagonists” (Bioorg Med Chem Lett, 1995)
